These compounds were tested against T1, human capsaicin receptor (Homo sapiens, UniProt Q8NER1) (assay: Antagonist assay for Capsaicin receptor mediated calcium mobilization). Settings: Table III, read-out: EC50 (the source's name).
T1 construct: expression consrtuct encoding the full length human capsaicin receptor; expressed in transfected cells
Type: cell-based
Method: Calcium Mobilization Assay
Cells transfected with expression plasmids (as described in Example 10) and thereby expressing the human capsaicin receptor are seeded and grown to 70-90% confluency in FALCON black-walled, clear-bottomed 96-well plates (#3904, BECTON-DICKINSON, Franklin Lakes, N.J.) . The culture media are emptied from the 96 well plates and FLUO-3 AM calcium sensitive dye (Molecular Probes, Eugene, OR) is added to each well (dye solution: 1 mg FLUO-3 AM, 440 uL DMSO and 440 ul 20% pluronic acid in DMSO, diluted 1:4, 50 ul diluted solution per well). Plates are covered with aluminum foil and incubated at 37° C for 1-2 hours in an environment containing 5% CO2. After the incubation the dye is emptied from the plates, and the cells are washed once with Krebs-Ringer HEPES (KRH) buffer (25 mM HEPES, 5 mM KCl, 0.96 mM NaH2PO4, 1 MM MgSO4, 2 mM CaCl2, 5 mM glucose, 1 mM probenecid, pH 7.4), and resuspended in KRH buffer.
Agonist (e.g., olvanil, capsaicin, or RTX)-induced calcium mobilization is monitored using either FLUOROSKAN ASCENT (Labsystems, Franklin, Mass.) or FLIPR (fluorometric imaging plate reader system, Molecular Devices, Sunnyvale, Calif.) instruments. Similarly, varying concentrations of the antagonists ruthenium red or capsazepine are added to cells concurrently with agonist (e.g., 25-50 nM capsaicin). For agonist-induced calcium responses, data obtained between 30 and 60 seconds after agonist application are used to generate the EC50 values. […] software (Synergy Software, Reading, Pa.) was utilized to fit the data to the equation: […]
to determine the EC50 for the response. In this equation, y is the maximum fluorescence signal, x is the concentration of the agonist or antagonist, a is the Emax, b corresponds to the EC50 or IC50 value, and finally, c is the Hill coefficient.
Assay for Determination of Capsaicin Receptor Antagonist Effects
In order to measure the ability of a test compound to antagonize (inhibit) the response of cells expressing capsaicin receptors to capsaicin or other vanilloid agonist, the EC50 of capsaicin is first determined.
An additional 20 ul of KRH buffer and 1 ul DMSO is added to each well of cells, prepared as described above. 100 ul capsaicin in KRH buffer is automatically transferred by the FLIPR instrument to each well.
Test compounds are dissolved in DMSO, diluted in 20 ul KRH buffer so that the final concentration of test compounds in the assay well is between 1 uM and 5 uM, and added to cells prepared as described above. The 96 well plates containing prepared cells and test compounds are incubated in the dark, at room temperature for 0.5-6 hours. It is important that the incubation not continue beyond 6 hours. Just prior to determining the fluorescence response, 100 ul capsaicin in KRH buffer at twice the EC50 concentration determined from the concentration response curve is automatically added by the FLIPR instrument to each well of the 96 well plate for a final sample volume of 200 ul and a final capsaicin concentration equal to the EC50. The final concentration of test compounds in the assay wells is between 1 uM and 5 uM. […] Antagonists of the capsaicin receptor decrease this response by about 20%, preferably by about 50%, and most preferably by at least 80% as compared to matched control. The concentration of antagonist required to provide a 50% decrease is the EC50 for the antagonist (also referred to as the IC50).

T1 sequence (Q8NER1 whole entry): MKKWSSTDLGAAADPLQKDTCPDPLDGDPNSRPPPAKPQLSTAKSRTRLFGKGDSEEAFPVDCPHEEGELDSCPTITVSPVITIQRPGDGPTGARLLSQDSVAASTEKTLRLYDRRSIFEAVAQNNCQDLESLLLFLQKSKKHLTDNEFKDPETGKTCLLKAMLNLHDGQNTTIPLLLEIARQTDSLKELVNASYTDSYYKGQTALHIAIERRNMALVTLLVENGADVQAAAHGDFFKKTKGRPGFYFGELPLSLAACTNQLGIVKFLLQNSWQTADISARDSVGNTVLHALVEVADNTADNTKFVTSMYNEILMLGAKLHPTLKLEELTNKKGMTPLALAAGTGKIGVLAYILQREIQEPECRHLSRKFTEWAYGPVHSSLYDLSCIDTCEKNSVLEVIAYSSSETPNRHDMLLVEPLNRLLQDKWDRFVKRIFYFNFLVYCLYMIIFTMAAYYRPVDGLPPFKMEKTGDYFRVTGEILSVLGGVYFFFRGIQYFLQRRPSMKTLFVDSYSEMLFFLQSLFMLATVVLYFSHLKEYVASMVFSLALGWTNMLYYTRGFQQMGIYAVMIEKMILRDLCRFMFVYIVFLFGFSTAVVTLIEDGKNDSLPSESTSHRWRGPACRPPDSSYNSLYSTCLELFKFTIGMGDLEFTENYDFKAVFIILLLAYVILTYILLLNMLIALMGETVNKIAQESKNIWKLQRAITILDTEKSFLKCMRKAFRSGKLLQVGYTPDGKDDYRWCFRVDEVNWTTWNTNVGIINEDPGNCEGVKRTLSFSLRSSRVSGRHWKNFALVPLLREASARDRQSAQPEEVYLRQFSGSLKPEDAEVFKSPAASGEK

IC50, < 1000 nM:
CCC1CN(c2ncccc2Cl)CCN1C(=O)Nc1ccc(C(C)(C)C)cc1 (stereo not drawn) [Compound 58, N-(4-tert-butylphenyl)-4-(3-chloropyridin-2-yl)-2-ethylpiperazine-1-carboxamide]
C[C@@H]1CN(c2ncccc2Cl)CCN1C(=O)Nc1ccc(C(F)(F)F)cc1F [Compound 27, (2R)-4-(3-chloropyridin-2-yl)-N-[2-fluoro-4-(trifluoromethyl)phenyl]-2-methylpiperazine-1-carboxamide]
C[C@@H]1CN(c2ncccc2Cl)CCN1C(=O)Nc1ccc(C(F)(F)F)cc1 [Compound 20, (2R)-4-(3-chloropyridin-2-yl)-2-methyl-N-[4-(trifluoromethyl)phenyl]piperazine-1-carboxamide]
COc1cccnc1N1CCN(C(=O)Nc2ccc(C3CCCCC3)cc2)[C@H](C)C1 [Compound 47, (2R)-N-(4-cyclohexylphenyl)-4-(3-methoxypyridin-2-yl)-2-methylpiperazine-1-carboxamide]
CC(C)c1ccc(NC(=O)N2CCN(c3ncccc3Cl)C[C@H]2C)cc1 [Compound 22, (2R)-4-(3-chloropyridin-2-yl)-N-(4-isopropylphenyl)-2-methylpiperazine-1-carboxamide]
C[C@@H]1CN(c2ncccc2C(F)(F)F)CCN1C(=O)Nc1ccc(C(C)(C)C#N)cc1 [Compound 57, (2R)-N-[4-(1-cyano-1-methylethyl)phenyl]-2-methyl-4-[3-(trifluoromethyl)pyridin-2-yl]piperazine-1-carboxamide]
CC(C)C1CN(c2ncccc2C(F)(F)F)CCN1C(=O)Nc1ccc(C(F)(F)F)cc1 (stereo not drawn) [Compound 73, 2-isopropyl-N-[4-(trifluoromethyl)phenyl]-4-[3-(trifluoromethyl)pyridin-2-yl]piperazine-1-carboxamide]
CCC1CN(c2ncccc2C(F)(F)F)CCN1C(=O)Nc1ccc(C(F)(F)F)cc1 (stereo not drawn) [Compound 62, 2-ethyl-N-[4-(trifluoromethyl)phenyl]-4-[3-(trifluoromethyl)pyridin-2-yl]piperazine-1-carboxamide]
C[C@@H]1CN(c2ncccc2F)CCN1C(=O)Nc1ccc(C2CCCC2)cc1 [Compound 79, (2R)-N-(4-cyclopentylphenyl)-4-(3-fluoropyridin-2-yl)-2-methylpiperazine-1-carboxamide]
CC1CN(c2ncccc2Cl)CC(C)N1C(=O)Nc1ccc(C(C)(C)C)cc1 (stereo not drawn) [Compound 32, N-(4-tert-butylphenyl)-4-(3-chloropyridin-2-yl)-2,6-dimethylpiperazine-1-carboxamide]
C[C@@H]1CN(c2ncccc2C(F)(F)F)CCN1C(=O)Nc1ccc(C(C)(C)C)cc1 [Compound 29, (2R)-N-(4-tert-butylphenyl)-2-methyl-4-[3-(trifluoromethyl)pyridin-2-yl]piperazine-1-carboxamide]
CCC1CN(c2ncccc2Cl)CCN1C(=O)Nc1ccc(C(F)(F)F)cc1 (stereo not drawn) [Compound 59, 4-(3-chloropyridin-2-yl)-2-ethyl-N-[4-(trifluoromethyl)phenyl]piperazine-1-carboxamide]
C[C@@H]1CN(c2ncccc2C(F)(F)F)CCN1C(=O)Nc1ccc(C2(O)CCOCC2)cc1 [Compound 51, (2R)-N-[4-(4-hydroxytetrahydro-2H-pyran-4-yl)phenyl]-2-methyl-4-[3-(trifluoromethyl)pyridin-2-yl]piperazine-1-carboxamide]
C[C@@H]1CN(c2ncccc2F)CCN1C(=O)Nc1ccc(C(F)(F)F)cc1 [Compound 75, (2R)-4-(3-fluoropyridin-2-yl)-2-methyl-N-[4-(trifluoromethyl)phenyl]piperazine-1-carboxamide]
C[C@@H]1CN(c2ncccc2Cl)CCN1C(=O)Nc1ccc(C2CCCC2)cc1 [Compound 36, (2R)-4-(3-chloropyridin-2-yl)-N-(4-cyclopentylphenyl)-2-methylpiperazine-1-carboxamide]

Same assay, conditions: Table V, read-out: EC50 (the source's name)

IC50, < 1000 nM:
C[C@@H]1CN(c2ncccc2S(N)(=O)=O)CCN1C(=O)Nc1ccc(C(C)(C)C)cc1 [Compound 139, (2R)-4-[3-(aminosulfonyl)pyridin-2-yl]-N-(4-tert-butylphenyl)-2-methylpiperazine-1-carboxamide]
C=C(c1ccc(NC(=O)N2CCN(c3ncccc3Cl)C[C@H]2C)cc1)C(F)(F)F [Compound 125, (2R)-4-(3-chloropyridin-2-yl)-2-methyl-N-{4-[1-(trifluoromethyl)vinyl]phenyl]piperazine-1-carboxamide]
Cc1cc(NC(=O)N2CCN(c3ncccc3C(F)(F)F)C[C@H]2C)ccc1C(F)(F)F [Compound 124, (2R)-2-methyl-N-[3-methyl-4-(trifluoromethyl)phenyl]-4-[3-(trifluoromethyl)pyridin-2-yl]piperazine-1-carboxamide]
C[C@@H]1CN(c2ncccc2Cl)CCN1C(=O)Nc1ccc(C(C(F)(F)F)(C(F)(F)F)C(F)(F)F)cc1 [Compound 148, *2R)-4-(3-chloropyridin-2-yl)-2-methyl_n_{4-[2,2,2-trifluoro-1,1-bis(trifluoromethyl)-ethyl]phenyl}piperazine-1-carboxamide]
C[C@@H]1CN(c2ncccc2Cl)CCN1C(=O)Nc1ccc(F)c(C(F)(F)F)c1 [Compound 159, (2R)-4-(3-chlorpyridin-2-yl)-N-[4-fluoro-3-(trifluoromethyl)phenyl]-2-methylpiperazine-1-carboxamide]
C[C@@H]1CN(c2ncccc2Cl)CCN1C(=O)Nc1cccc(I)c1 [Compound 150, (2R)-4-(3-chloropyridin-2-yl)-N-(3-iodophenyl)-2-methylpiperazine-1-carboxamide]
C[C@@H]1CN(c2ncccc2C(F)(F)F)CCN1C(=O)Nc1ccc(F)c(C(F)(F)F)c1 [Compound 161, (2R)-N-[4-fluoro-3-(trifluoromethyl)phenyl]-2-methyl-4-[3-(trifluoromethyl)pyridin-2-yl]piperazine-1-carboxamide]
Cc1cc(NC(=O)N2CCN(c3ncccc3F)C[C@H]2C)ccc1C(F)(F)F [Compound 122, (2R)-4-(3-fluoropyridin-2-yl)-2-methyl-N-[3-methyl-4-(trifluoromethyl)phenyl]piperazine-1-carboxamide]
C[C@@H]1CN(c2ncccc2Cl)CCN1C(=O)Nc1ccc2c(c1)Cc1ccccc1-2 [Compound 142, (2R)-4-(3-chloropyridin-2-yl)-N-(9H-flouren-2-yl)-2-methylpiperazine-1-carboxamide]
C[C@@H]1CN(c2ncccc2C(F)(F)F)CCN1C(=O)Nc1ccc(C(F)(C(F)(F)F)C(F)(F)F)cc1 [Compound 163, (2R)-2-methyl-N-{4-[1,2,2,2-tetrafluoro-1-(trifluoromethyl)ethyl]phenyl}-4-[3-(trifluoromethyl)pyridin-2-yl]piperazine-1-carboxamide]
O=C(Nc1ccc(Cl)cc1)N1CCN(c2cc(C(F)(F)F)ccn2)CC1 [Compound 107, N-(4-chlorophenyl)-4-[4-(trifluoromethyl)pyridin-2-yl]piperazine-1-carboxamide]

Same assay, conditions: Table VI, read-out: EC50 (the source's name)

IC50, < 1000 nM:
C[C@@H]1CN(c2ncccc2Cl)CCN1C(=S)Nc1ccc(C(F)(F)F)cc1 [Compound 172]
CC(C)c1ccc(NC(=S)N2CCN(c3ncccc3Cl)C[C@@H]2C)cc1 [Compound 170]
C[C@H]1CN(c2ncccc2Cl)CCN1C(=S)Nc1ccc(C(C)(C)C)cc1 [Compound 171]
CC(C)c1ccc(NC(=S)N2CCN(c3ncccc3Cl)C[C@H]2C)cc1 [Compound 169]

— patent US20020132853A1, “Capsaicin receptor ligands” (priority 2000, published 2002)
